PubChem BioAssay (NCI)
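Test compounds were applied to cells in 96-well plates for 48 hours at 5 doses. The concentration for full growth arrest is given as TGI.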

Columns and labels:
Assay in all cases: NCI-60 cell line screen, 48 h
[1] = system: A549 NSCLC
[2] = system: CCRF-CEM leukemia
[3] = system: EKVX NSCLC
[4] = system: HCT-116 colon
[5] = system: K-562 leukemia
[6] = system: NCI-H226 lung
[7] = system: NCI-H460 lung
[8] = system: RXF 393 renal
[9] = system: SK-OV-3 ovarian
[10] = system: DU-145 prostate
[11] = system: MDA-MB-435

Row | Structure (SMILES) | TGI [1] | TGI [2] | TGI [3] | TGI [4] | TGI [5] | TGI [6] | TGI [7] | TGI [8] | TGI [9] | TGI [10] | TGI [11]
1 | CC(C)c1cccc(C(C)C)c1NC(=O)C(=O)Cc1nc2ccc([N+](=O)[O-])cc2[nH]c1=O | > 100 µM | > 100 µM | > 100 µM | > 100 µM | > 100 µM | > 100 µM | > 100 µM | > 100 µM | > 100 µM | – | –
2 | CCOC1=C2N=C(C(CC)c3ccccc3F)N=C2C(=O)c2ccccc21 (stereo not given) | > 100 µM | > 100 µM | > 100 µM | > 100 µM | > 100 µM | > 100 µM | > 100 µM | 74.8 µM | – | – | –
3 | CC1=C(c2nc3ccccc3s2)C(=O)OC1(C)C | > 100 µM | > 100 µM | > 100 µM | > 100 µM | > 100 µM | > 100 µM | > 100 µM | – | > 100 µM | – | –
4 | COc1ccc(N2C(=O)c3c(c4[nH]c5ccccc5c4c4ccc(C(C)(C)C)cc34)C2=O)cc1 | > 100 µM | 42.1 µM | > 100 µM | > 100 µM | > 100 µM | > 100 µM | > 100 µM | 98.1 µM | > 100 µM | – | –
5 | CCOC(=O)N/N=C(/N)c1cccc(Br)c1 | > 100 µM | > 100 µM | > 100 µM | > 100 µM | > 100 µM | – | > 100 µM | > 100 µM | > 100 µM | > 100 µM | –
6 | CO/C(N)=C(\C#N)N=Cc1ccc2ccccc2c1 | > 100 µM | > 100 µM | > 100 µM | > 100 µM | 94.6 µM | > 100 µM | – | > 100 µM | > 100 µM | > 100 µM | > 100 µM
7 | C=C1CC(C)(COc2ccc3c(C)c(Cl)c(=O)oc3c2)OC1=O (stereo not given) | 25.5 µM | 2.54 µM | 20.8 µM | 1.57 µM | 5.98 µM | 17.8 µM | 21.2 µM | – | 17.6 µM | 6.8 µM | 11.7 µM
8 | CCOC(=O)c1c2ccc(/C=C/c3ccccn3)ccc-2c(C(=O)OCC)c1N | > 100 µM | > 100 µM | > 100 µM | – | > 100 µM | > 100 µM | > 100 µM | > 100 µM | > 100 µM | – | –
9 | O=C1NC2NC3NC(=O)NC3NC2N1 (stereo not given) | > 100 µM | > 100 µM | > 100 µM | > 100 µM | > 100 µM | > 100 µM | – | > 100 µM | – | > 100 µM | > 100 µM
10 | C=CCCC1(O)C(O)C(CO)O[C@H](O[C@@]2(CO)OC(CO)C(O)C2O)C1O (stereo not given in full) | > 100 µM | > 100 µM | > 100 µM | > 100 µM | > 100 µM | > 100 µM | > 100 µM | – | – | > 100 µM | > 100 µM
11 | CC(C)(C)OC(=O)NC1CCCC1C(=O)C1=CCCC1 (stereo not given) | > 100 µM | > 100 µM | – | > 100 µM | > 100 µM | > 100 µM | > 100 µM | > 100 µM | > 100 µM | > 100 µM | > 100 µM
12 | CC1(C)CCN2C(=O)C34CCCC3CC21S4 (stereo not given) | > 100 µM | > 100 µM | > 100 µM | > 100 µM | > 100 µM | > 100 µM | – | > 100 µM | > 100 µM | > 100 µM | > 100 µM
13 | CCS(=O)C(=O)N(O)c1ccc(Cl)cc1 (stereo not given) | > 100 µM | 63.2 µM | > 100 µM | > 100 µM | 39.9 µM | > 100 µM | – | 41.6 µM | > 100 µM | > 100 µM | 30 µM
14 | CC(=O)OI1NC(=O)c2ccccc21 | > 100 µM | > 100 µM | > 100 µM | > 100 µM | > 100 µM | > 100 µM | – | – | > 100 µM | > 100 µM | > 100 µM
15 | CCC(NC(C)c1ccccc1)C(=O)c1ccc(OCc2ccccc2)c(OCc2ccccc2)c1 (stereo not given) | > 100 µM | – | > 100 µM | > 100 µM | > 100 µM | > 100 µM | > 100 µM | > 100 µM | > 100 µM | > 100 µM | > 100 µM
16 | COc1ccc2[nH]c3c(c2c1)[C@H](c1ccccc1)C[C@@H]1C(=O)N(c2ccccc2)C(=O)[C@H]31 | 35.8 µM | 95.2 µM | > 100 µM | 19 µM | > 100 µM | 57.6 µM | 84.1 µM | 36.1 µM | 50 µM | – | –
17 | CCc1n[nH]c(=O)n1CCCCCCCCn1c(CC)n[nH]c1=O | > 100 µM | > 100 µM | > 100 µM | > 100 µM | > 100 µM | > 100 µM | > 100 µM | > 100 µM | > 100 µM | – | > 100 µM
18 | CN(C)CCN(C)P12(Oc3ccccc3O1)Oc1c(Cl)c(Cl)c(Cl)c(Cl)c1O2 | > 100 µM | 92.2 µM | > 100 µM | > 100 µM | > 100 µM | > 100 µM | > 100 µM | – | > 100 µM | > 100 µM | > 100 µM
19 | COC(=O)c1ccc2c(c1)CC1(C2)Cc2cc3c(cc2C1)CCC3 | > 100 µM | > 100 µM | > 100 µM | > 100 µM | > 100 µM | – | > 100 µM | > 100 µM | > 100 µM | > 100 µM | > 100 µM
20 | N#CC(NNC(=O)Cc1ccccc1)c1cccc(O)c1 (stereo not given) | > 100 µM | > 100 µM | – | > 100 µM | > 100 µM | > 100 µM | > 100 µM | > 100 µM | > 100 µM | – | –
21 | O[C@]12C=C(c3nccc4c3[nH]c3ccccc34)[C@@H]3CCN(CCCC/C=C\CC1)C[C@@]31CC3/C=C\CCCCN3[C@H]12 (stereo not given in full) | 11.2 µM | > 29.6 µM | 3.57 µM | 0.647 µM | 2.84 µM | 5.2 µM | 2.02 µM | – | 0.743 µM | 2.86 µM | 1.53 µM
22 | CC1=NN(c2nc(N)nc(NS(=O)(=O)c3cc(C)c(Cl)cc3S)n2)C(C)(C)C1 | > 10 µM | > 10 µM | > 10 µM | > 10 µM | > 10 µM | > 10 µM | > 10 µM | > 10 µM | > 10 µM | > 10 µM | –
